Measurements taken from PubChem BioAssay AID1918946 (Molecular Pharmacology Branch, DTP, NCI, 2023).

System: 885512-296-R-J2-PDC complex spheroid viability
Assay: Anticancer human tumor 885512-296-R-J2-PDC patient-derived breast carcinoma cell line growth inhibition
Details: for IC50: curve of first compound; for viability, T/C: stronger effect = lower value
Method in brief: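 Drug combinations with the LSD1 inhibitor iadademstat tested on tumor cells co-cultured as spheroids with endothelial cells and mesenchymal stem cells. Concentrations descended in half-log increments from clinical Cmax or 10 microM.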
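Also: spheroids exposed to agents for 7 days before viability read.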

## CC1(C)CCC(CN2CCN(c3ccc(C(=O)NS(=O)(=O)c4ccc(NCC5CCOCC5)c([N+](=O)[O-])c4)c(Oc4cnc5[nH]ccc5c4)c3)CC2)=C(c2ccc(Cl)cc2)C1 + NC1CC1c1ccc(-c2cccc(O)c2)cc1
Second compound 0.1 µM
  IC50: 1.78 µM
Second compound 0.316 µM
  IC50: 1.82 µM
Second compound 1 µM
  IC50: 1.85 µM
Second compound 3.16 µM
  IC50: 1.53 µM
Second compound 10 µM
  IC50: 0.994 µM
Second compound 0.1 µM, first compound 0.0316 µM
  viability, T/C: 118%
Second compound 0.1 µM, first compound 0.1 µM
  viability, T/C: 111%
Second compound 0.1 µM, first compound 0.316 µM
  viability, T/C: 105%
Second compound 0.1 µM, first compound 1 µM
  viability, T/C: 76.4%
Second compound 0.1 µM, first compound 3.16 µM
  viability, T/C: 23.9%
Second compound 0.1 µM, first compound 10 µM
  viability, T/C: 0.12%
Second compound 0.316 µM, first compound 0.0316 µM
  viability, T/C: 122%
Second compound 0.316 µM, first compound 0.1 µM
  viability, T/C: 112%
Second compound 0.316 µM, first compound 0.316 µM
  viability, T/C: 105%
Second compound 0.316 µM, first compound 1 µM
  viability, T/C: 82.3%
Second compound 0.316 µM, first compound 3.16 µM
  viability, T/C: 20.8%
Second compound 0.316 µM, first compound 10 µM
  viability, T/C: 0.11%
Second compound 1 µM, first compound 0.0316 µM
  viability, T/C: 115%
Second compound 1 µM, first compound 0.1 µM
  viability, T/C: 116%
Second compound 1 µM, first compound 0.316 µM
  viability, T/C: 105%
Second compound 1 µM, first compound 1 µM
  viability, T/C: 79.9%
Second compound 1 µM, first compound 3.16 µM
  viability, T/C: 24.4%
Second compound 1 µM, first compound 10 µM
  viability, T/C: 0.22%
Second compound 3.16 µM, first compound 0.0316 µM
  viability, T/C: 103%
Second compound 3.16 µM, first compound 0.1 µM
  viability, T/C: 103%
Second compound 3.16 µM, first compound 0.316 µM
  viability, T/C: 101%
Second compound 3.16 µM, first compound 1 µM
  viability, T/C: 68.4%
Second compound 3.16 µM, first compound 3.16 µM
  viability, T/C: 17.6%
Second compound 3.16 µM, first compound 10 µM
  viability, T/C: 0.11%
Second compound 10 µM, first compound 0.0316 µM
  viability, T/C: 83.1%
Second compound 10 µM, first compound 0.1 µM
  viability, T/C: 78.8%
Second compound 10 µM, first compound 0.316 µM
  viability, T/C: 70.5%
Second compound 10 µM, first compound 1 µM
  viability, T/C: 52.1%
Second compound 10 µM, first compound 3.16 µM
  viability, T/C: 12.4%
Second compound 10 µM, first compound 10 µM
  viability, T/C: 0.15%
